US20230009323A1, “COMPOUNDS AND METHODS FOR THE TREATMENT OF CRYPTOSPORIDIOSIS” (The Broad Institute, Inc., priority 2019, published 2023)
Entries after “also recorded” stand apart in the source; their conditions may differ.

Legend:
C. parvum = assay: NOD SCID gamma mouse model of established cryptosporidiosis, fecal oocyst shedding by qPCR; type: in vivo, NOD SCID gamma mice
From the text: FIG. 4A is a schematic of NOD SCID gamma (NSG) mouse model of established intestinal cryptosporidiosis. Intestinal C. parvum infection was established by oral gavage of ˜10^5 oocysts either 7 days (FIGS. 4B and C) or 14 days (FIG. 4D) prior to oral treatment with bicyclic azetidines, vehicle, or paromomycin (positive control). All data are the mean and SEM (n=4 mice per experimental group) of parasite shedding per mg of feces measured by qPCR with results for individual mice shown as superimposed data points. Data points for which no parasite DNA was detected are shown at the qPCR assay limit of detection (0.1 oocysts per mg feces).
NOD scid gamma mice (NOD.Cg-Prkdcscid Il2rgtmlWjl/Szj; Jackson Laboratory, Bar Harbor, Me.) (NSG) were used to model established Cryptosporidium infection. All NSG mouse studies were performed in compliance with animal care guidelines and with approval by the University of Vermont Institutional Animal Care and Use Committee. Mice were acquired at three to four weeks of age, and acclimatized for one week prior to infection by oral gavage of ˜10^5 C. parvum Iowa isolate (Bunch Grass Farms) oocysts. They were then treated at the specified times and dosages with each compound dissolved in 0.5% hydroxypropylmethyl cellulose, 0.5% Tween 80 (v/v) plus 5% DMSO.
This cryptosporidiosis infection model used 3-4 week old, freshly weaned, NOD SCID gamma mice orally infected with C. parvum oocysts (˜1×10^5). The infection was monitored by qPCR of feces with primers specific for C. parvum and data are shown as number of oocysts milligram^−1 of feces. Six days following infection and upon confirmation of parasite shedding by qPCR, the three compounds, negative and positive control were orally administered at 50 mg·kg^−1 (body weight) every 24 h for 4 days. (FIGS. 4A-D). […] We then performed a dose-ranging study with Compound 11 using the same immunocompromised mouse model and dosing regimens of 5, 20 and 40 mg·kg^−1 every 24 h for 4 days or 10 mg·kg^−1 every 24 h for 7 days. Mice were monitored for an additional 14 days for relapse of infection.

[1] = tested on: C. parvum mutant transgenic PheRS (mut482V); assay: microbe, parasite or virus in culture; type: cell-based, Cryptosporidium parvum
Procedure: The in vitro drug susceptibility assay using transgenic parasites expressing Nluc was performed as described in Vinyak et al. Briefly, host intestinal epithelial adenocarcinoma (HCT-8) cells grown in 96-well plates were infected with purified transgenic Nluc-expressing oocysts (1,000 oocysts per well) and incubated with different concentrations of Compound 11 for 48 hours. Culture supernatant was discarded from the wells after 48 hours, and 200 μl of NanoGlo lysis buffer containing 1:50 of NanoGlo substrate (Promega) was added to the wells. Lysates were transferred to white 96-well plates and luminescence was measured on a Glomax luminescence reader (Promega). EC50 values were calculated in GraphPad Prism software v7.
Oocysts from the mutant (mut482V) and wild type (wtL482) transgenic lines were purified as well as the parent strain (Bunchgrass) used to generate the transgenics. Sporozoites were excised from these oocysts and used to infect 96 well format HCT-8 cultures to perform in vitro drug susceptibility assays. Cultures were incubated for 48 hours in the presence of varying concentrations of Compound 11 and parasite growth was measured by establishing whole well luciferase activity to calculate EC50 values for each strain.

[2] = tested on: transgenic C. parvum (L482+V482 mixed or wt L482); assay: IFN-γ knockout mice infected with transgenic C. parvum, fecal luminescence; type: in vivo, C57BL/6 IFN-γ knockout mice; details: 10 mg/kg for five days (days 4-8 post-infection); day 7
From the text: All mouse studies described in this section were approved by the Institutional Animal Care and Use Committee of the University of Georgia and University of Pennsylvania. Cryptosporidium parvum IOWA-II oocysts were purchased from Bunch Grass Farms, Deary, Id., USA. Oocysts were excysted and electroporated with Cas9/guide plasmid and repair DNA template using Lonza Nucleofector 4D device and previously optimized protocols described in Vinayak, S. et al. Nature 523, 477-480, doi:10.1038/nature14651 (2015) and Pawlowic, et al. Curr Protoc Microbiol 46, 20B 22 21-20B 22 32, doi:10.1002/cpmc.33 (2017), each hereby incorporated by reference in their entirety. C57BL/6 IFN-γ knockout mice (Jackson Laboratory) aged 4-6 weeks (n=5) were infected with transfected sporozoites suspended in PBS using surgery described previously or an oral gavage procedure. The oral gavage procedure involved buffering of the acidic stomach with 8% sodium bicarbonate before delivery of sporozoites.
Fecal samples were collected from cages and luminescence measurements were performed as described in Manjunatha, U. H. et al. Nature 546, 376-380, doi:10.1038/nature22337 (2017) and Vinayak, S. et al. Nature 523, 477-480, doi:10.1038/nature14651 (2015), each hereby incorporated by reference in their entirety. […] During passaging, mice were monitored for weight loss, fur ruffling, hunched posture, and inactivity. […]

COc1ccc(NC(=O)N2CCCCN3[C@H](CN(C)C)[C@H](c4ccc(C#Cc5ccccc5)cc4)[C@@H]3C2)cc1 [Compound 11, (8R,9S,10S)-10-((dimethylamino)methyl)-N-(4-methoxyphenyl)-9-(4-(phenylethynyl)phenyl)-1,6-diazabicyclo[6.2.0]decane-6-carboxamide]
oocyst shedding at follow-up for relapse (C. parvum; 10 mg/kg every 24 h for 7 days, monitored an additional 14 days): no oocyst shedding was observed
log reduction in oocysts·mg^−1 stool (C. parvum; oral, 50 mg/kg every 24 h for 4 days): ~3 log
reduction in oocyst shedding (oocysts per mg feces) (C. parvum; oral, 50 mg/kg every 24 h for 4 days, 50 mg/kg): significant reduction in oocyst shedding; also recorded: greatest reduction in oocysts
fold shift in EC50, mutant transgenic vs wild type transgenic [1]: 23 fold
EC50 ([1]; Cryptosporidium parvum, HCT-8, 48 h, read-out: EC50, mutant transgenic): 1.06 µM
fecal luciferase activity (parasite shedding) [2]: decrease in luciferase activity
